What all share (assay): NCI anticancer screen, dose series, 48 h
Test [1] relates to HCT-116 colon.
Test [2] relates to LOX IMVI melanoma.
In test [3] the test system is NCI-H226 lung.
The test system of test [4] is NCI-H460 lung.
The subject of test [5] is NCI/ADR-RES ovarian.
The subject of test [6] is SK-MEL-5 melanoma.
Test [7] deals with SK-OV-3 ovarian.
The test system of test [8] is SR leukemia.
For test [9], the system named is T-47D breast.
In test [10] the test system is EKVX NSCLC.

Several values for one entry are separate records, joined by “and”; a condition that tells them apart may be missing. Equal values may be shown once.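 Cells were grown in 96-well plates and exposed to each compound for 48 hours at five concentrations; endpoints were interpolated linearly between bracketing concentrations, or set to the highest concentration if not reached. GI50 is the concentration that inhibits growth by half. At the TGI there is no net growth.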

Take `COc1cccc(C(=O)Nc2ccc(CN3CCc4nc5cc(OC)c(OC)cc5cc43)cc2)c1`: the GI50 is 3.12 µM in test [1]; 2.37 µM in test [2]; 5.69 µM in test [3]; 2.84 µM in test [4]; 4.48 µM in test [5]; 2.97 µM in test [6]. Besides, the values for the GI50 in [7], in [8] and in test [9] were 18.5 µM, 3.07 µM and 4.49 µM, respectively. The TGI is 12.1 µM in test [1]; 6.5 µM in [2]; more than 100 µM in test [3]; 8.71 µM in [4]; more than 100 µM in test [5]; 10.9 µM in test [6]. Further, the TGI in test [7] is more than 100 µM; in [8], 9.64 µM; in test [9], 53.7 µM.
`CC[C@@]1(OC(=O)CN)C(=O)OCc2c1cc1n(c2=O)Cc2cc3cc4c(cc3nc2-1)OCO4`: the GI50 in test [10] was 0.0735 µM; in test [2] it was less than 0.01 µM; in [3] it was less than 0.01 µM; in [4] it was less than 0.01 µM; in test [5] it was less than 0.01 µM; in test [6] it was less than 0.01 µM. For the same compound, the GI50 in [7], in [8] and in [9] was less than 0.01 µM throughout. Besides, the TGI in test [10] is more than 100 µM; in [2], 0.119 µM; in test [3], 0.121 µM; in test [4], 0.0238 µM; in [5], 0.015 µM; in [6] it was 0.134 µM. Moreover, the TGI in test [7] is 0.0736 µM; in test [9], more than 100 µM.
For `Cc1cc(Cc2cc(C)c(O)c(C)c2)cc(C)c1O`, the GI50 was 4.12 µM in test [1]; 6.64 µM in test [2]; 19.2 µM in test [3]; 3.33 µM in test [4]; 3.95 µM in [5]; 4.53 µM in test [6]. Moreover, the results for the GI50 in test [7], in test [8] and in test [9] were 6.47 µM, 2.65 µM and 4.64 µM, respectively. Moreover, the TGI in test [1] came out at 15.2 µM; in test [2], 33.3 µM; in [3] it was 77.1 µM; in test [4], 11.8 µM; in test [5], 48.5 µM; in test [6] it was 17.5 µM. For the same compound, the TGI in [7] came out at 52.4 µM; in test [8], 20.2 µM; in [9], 72 µM.
Consider `Cc1cc(=O)oc2c(CN3CCCCC3)c(O)ccc12`, for which the TGI in [10], in test [1], in [2], in test [3], in test [4] and in test [5] was more than 100 µM throughout. In addition, the TGI in test [6], in test [8] and in test [9] was more than 100 µM in each case.
For `CCN(CC)C(=O)CC1=C(C)/C(=C/c2[nH]c(-c3ccc[nH]3)cc2OC)N=C1C`, the GI50 in test [10] is 0.452 µM; in test [1] it was 0.286 µM; in [2], 0.199 µM; in [3] it was 0.531 µM; in test [4], 0.366 µM; in test [5] it was 0.563 µM. Besides, the GI50 is 0.658 µM in test [7], 0.289 µM in test [8] and 0.272 µM in test [9]. Further, the TGI is 38.7 µM in test [10]; 10.3 µM in test [1]; 0.513 µM in [2]; 6.11 µM in test [3]; 14.2 µM in test [4]; 14.8 µM in test [5]. The results for the TGI in test [7], in test [8] and in test [9] were 8.3 µM, 0.994 µM and 13.1 µM, respectively.
For `Cc1onc(-c2c(F)cccc2Cl)c1-c1ncc(-c2ccc(Cl)cc2)o1`, the GI50 in test [1] was 2.76 µM; in test [3], 5.93 µM; in test [4], 3.18 µM; in test [5] it was 5.08 µM; in [6] it was 2.55 µM; in test [7], 9.33 µM. In addition, the GI50 was 2.92 µM in [8] and 3.48 µM in test [9]. Further, the TGI in test [1] is more than 100 µM; in test [3] it was more than 100 µM; in [4], more than 100 µM; in test [5] it was more than 100 µM; in test [6], 8.33 µM; in test [7], more than 100 µM. The TGI is 31.3 µM in test [8] and more than 100 µM in test [9].
Consider `O=[N+]([O-])c1cc([N+](=O)[O-])c(Cl)c(Cl)c1Cl`, for which the GI50 in test [10] is 2.74 µM; in test [1], 0.24 µM; in test [2], 0.516 µM; in test [4], 2.16 µM; in test [5] it was 2.87 µM; in [6], 1.75 µM. In addition, the GI50 was 5.84 µM in test [7], 0.639 µM in [8] and 0.631 µM in test [9]. The TGI in [10] is 10.5 µM; in test [1], 0.743 µM; in [2], 1.86 µM; in test [4], 4.99 µM; in [5], more than 100 µM; in [6] it was 3.35 µM. In addition, the TGI was 18.4 µM in test [7], 5.86 µM in test [8] and 2.84 µM in [9].
For the compound `O=c1oc2cc(N=Cc3ccccc3Cl)ccc2c2ccccc12`, the TGI in [10], in test [1], in test [2], in [3], in [4] and in [5] was more than 100 µM each time. Besides, the TGI in test [6], in test [8] and in [9] was more than 100 µM in each case.
For `COc1cc(NS(C)(=O)=O)ccc1Nc1c2ccccc2nc2c(C)cccc12`, the GI50 in test [1] was 0.133 µM and 0.16 µM; in [2], 0.0512 µM and 0.0544 µM; in test [4] it was 0.0175 µM and 0.022 µM; in test [5], 0.992 µM and 1.45 µM; in test [6] it was 0.153 µM and 0.218 µM; in test [7], 0.302 µM and 0.332 µM. Besides, the GI50 is < 0.0145 µM and 0.013 µM in test [8]; 0.111 µM and 0.109 µM in test [9]. In addition, the TGI in [1] is 2.13 µM and 2.37 µM; in test [2], 1.35 µM and 1.51 µM; in test [4], 1.1 µM and 1.08 µM; in [5], 76.1 µM and 54.9 µM; in test [6], 1.2 µM and 3.69 µM; in test [7], 7.8 µM and 11 µM. For the same compound, the TGI was 6.75 µM and 2.16 µM in test [8]; 4.05 µM and 5.71 µM in test [9].
Take `CN(CCC#N)c1ccc(/C=C(\C#N)c2cccc(C(F)(F)F)c2)cc1`: the GI50 is 3.21 µM in [1]; 3.75 µM in [2]; 6.02 µM in test [3]; 3.76 µM in test [4]; 3.68 µM in test [5]; 3.23 µM in test [6]. In addition, the GI50 in test [7] was 36.7 µM; in test [8], 2.52 µM; in test [9], 2.25 µM. In addition, the TGI was more than 100 µM in [1]; more than 100 µM in [2]; more than 100 µM in [3]; more than 100 µM in test [4]; more than 100 µM in [5]; 30.5 µM in test [6]. In addition, the TGI in test [7], in test [8] and in [9] was more than 100 µM throughout.
Turning to `COC1C(O)C(C)OC(OC2C(Oc3cccc4c(O)c5c(=O)oc6ccc(C)c7c(=O)oc(c34)c5c67)OC(C)C3O[C@H](c4ccccc4)OC32)C1O` (stereo partly specified), the TGI is 5.99 µM in [10]; 3.64 µM in test [1]; 1.72 µM in [2]; 0.836 µM in test [3]; 1.43 µM in test [4]; 10.8 µM in test [5]. The TGI in test [6] came out at 1.8 µM; in test [7] it was 7.94 µM. In addition, the GI50 in test [1] was 0.0528 µM and 0.0292 µM; in [2], 0.199 µM and 0.048 µM; in [3], 0.186 µM; in [4], 0.0241 µM; in test [9], 0.483 µM.
Take `Cn1cc(C2=C(c3c4n(c5ccccc35)CCCC4)C(=O)NC2=O)c2ccccc21`: the GI50 in test [1] was 11.4 µM; in test [2], 16.6 µM; in test [3], more than 22 µM; in [4] it was 9.9 µM; in [5] it was 7.81 µM; in test [6] it was 7.94 µM. For the same compound, the results for the GI50 in test [7], in test [8] and in test [9] were more than 15.3 µM, 5.92 µM and more than 15.5 µM, respectively. The TGI in test [1], in test [2], in test [3], in [4], in [5] and in test [6] was more than 25 µM each time. Besides, the TGI in test [7], in [8] and in [9] was more than 25 µM throughout.
Consider `Cc1cc2cccnc2c2ncccc12`, for which the GI50 in test [10] is 0.665 µM; in test [1], 1.14 µM; in [2], 0.674 µM; in test [3], 1.33 µM; in [4], 0.508 µM; in [5], 0.315 µM. Further, the GI50 was 1.3 µM in [6], 0.756 µM in [7] and 3.32 µM in test [9]. The TGI was determined as 16 µM in test [10]; 7.06 µM in test [1]; 8.6 µM in test [2]; 8.81 µM in test [3]; 2.54 µM in test [4]; 1.84 µM in test [5]. Besides, the TGI in test [6] was found to be 10.7 µM; in test [7] it was 8.42 µM; in test [9], 21.3 µM.

Values taken from PubChem BioAssay (NCI).
